Data from US5624831A, “Immobilized acetylcholinesterase stabilized by a film of gelatin or albumin containing trehalose” (priority 1994, dated 1997).

Experiments:
[1] = test system: acetylcholinesterase; assay: Analysis of a drug in spiked serum by inhibition of acetylcholinesterase; format: biochemical; conditions: serum of a healthy subject
Description: The serum of a healthy subject was spiked with increasing concentrations of pyridostygmin and thereafter analysed for the enzymatic activity of acetylcholinesterase, following the protocol already outlined in former examples. One sees in graph 1 that the detection Of the inhibitor of AchE goes down to 1 to 2 μg/ml of this drug in serum.
The serum of a healthy subject was spiked with increasing concentrations of neostygmin and thereafter analysed for the enzymatic activity of acetylcholinesterase, following the protocol already outlined in former examples. One sees in graph 2 that the detection of this inhibitor of AchE goes down to 50 ng/ml of this drug in serum.
A serum of a healthy subject was spiked with increasing concentrations of eserin and thereafter analysed for the enzymatic activity of acetylcholinesterase, following the protocol already outlined in former examples. One sees in graph 3 that the detection of this inhibitor of AchE goes down to 100 ng/ml of this drug in serum.

[2] = test system: Acetylcholinesterase, extracted from torpedo fish; assay: Stability of acetylcholinesterase-sensitized wells: residual enzymatic activity after 7 days dry storage (Table I); format: physicochemical
Description: After a night of incubation at 4° C., the wells were rinsed and thereafter subjected to the following analysis:
1. Control (nothing added)
2. Rinsing of the wells with buffered water (0.05 M phosphate pH 7,00) containing 15% trehalose.
3. Covering of the wells with buffered water (0.05 M phosphate pH 7,00) containing 5% gelatin (240 bloom), followed by the elimination of the gelatin without rinsing
4. Covering of the wells with buffered water (0.05 M phosphate pH 7,00) containing 5% gelatin (240 bloom) and 15% trehalose, followed by an elimination of the gelatin witout rinsing.
The gelatin was solubilized by heating at 47° C., then cooling down to 37° C. before dispensing in the wells. The wells of the microtitration plates handled in this way were placed at 4° C., 37° C. and 50° C. during 7 days in a dry incubator, then analyzed for the remaining enzymatic activity, according to Ellman's method. Results are given in adsorbances read at 412 nm (table I).

[3] = test system: Horseradish peroxidase; assay: Stability of immobilized peroxidase under gelatin or albumin film containing trehalose, 7 days dry storage (Table II); format: physicochemical; conditions: included in the gelifying film
Description: Horseradish peroxidase (0.2 mg/ml) was used to sensitize the wells of microtitration plates, following the method described in example I. After sensitization during one night at 4° C., the wells were covered either with a warm solution (47° C. for the solubilisation, 37° C. for the pouring into the wells) of a 5% gelatin solution or a 5% albumin solution, both containing trehalose in decreasing concentrations starting from a concentration of 8 mg/ml. Triton X100 at a concentration of 0.04% was added to the albumin solution, as a wetting agent. The wells were immediately emptied without rinsing and were thereafter placed at 4° C. and 37° C. duiring 7 days in a dry incubator. The remaining peroxidase activity was measured by addition to the wells of 100 μl of a solution of tetramethylbenzidine and hydrogen peroxide in a citrate-phosphate buffer at pH 5.5. The blue coloration obtained changes to yellow with sulfuric acid (100 μl, 0.5 N), added to stop the enzymatic reaction. The results are given in adsorbances read at 450 nm (table II)

[4] = biological target: T1, torpedo fish AchE (Torpedo marmorata, UniProt P07692); assay: Analysis of 5 pesticides dissolved in water by inhibition of immobilized AchE (Table VIII); format: biochemical; conditions: for times less sensitivity of detection: compared with Naled, Carbofuran, Paraoxon; for sensitivity of the test (in words): in water, gelatin-trehalose protected
T1 construct: from tissue

[5] = biological target: T2, acetylcholinesterase (Torpedo marmorata, UniProt P07692); assay: Analysis of pesticides in salad extracts by inhibition of acetylcholinesterase (Table IX); format: biochemical; conditions: read-out: % relative activity
T2 construct: from tissue
Source text: The analysis of the presence of these inhibitors was done following the protocol described in example 1.

T2 sequence (P07692 25-590): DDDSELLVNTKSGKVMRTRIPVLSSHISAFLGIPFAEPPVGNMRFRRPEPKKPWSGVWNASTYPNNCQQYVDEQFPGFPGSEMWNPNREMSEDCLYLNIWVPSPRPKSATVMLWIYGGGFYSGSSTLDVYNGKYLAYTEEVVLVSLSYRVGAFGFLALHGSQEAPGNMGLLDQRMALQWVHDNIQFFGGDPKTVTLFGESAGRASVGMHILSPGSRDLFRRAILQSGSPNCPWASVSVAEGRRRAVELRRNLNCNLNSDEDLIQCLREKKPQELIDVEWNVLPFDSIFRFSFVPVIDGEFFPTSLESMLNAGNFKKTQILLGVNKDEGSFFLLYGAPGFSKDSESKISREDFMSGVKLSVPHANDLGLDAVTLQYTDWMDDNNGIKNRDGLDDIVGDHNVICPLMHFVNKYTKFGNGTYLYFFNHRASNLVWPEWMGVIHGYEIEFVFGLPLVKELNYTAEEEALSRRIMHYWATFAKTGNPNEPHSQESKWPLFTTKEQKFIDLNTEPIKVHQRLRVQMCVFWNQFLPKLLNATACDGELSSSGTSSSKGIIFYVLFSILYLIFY
T1 sequence (P07692 25-590): as above

SMILES | % of Residual activity ([4]; 10 μg/litre in water) [%] | % of Residual activity ([4]; 50 μg/litre in water) [%] | % of Residual activity ([4]; 100 μg/litre in water) [%] | % of Residual activity ([4]; 1000 μg/litre in water) [%] | % of Residual activity ([4]; 01 μg/litre in water) [%] | sensitivity of the test (in words) [4] | further results
CN(C)C(=O)Oc1cccc([N+](C)(C)C)c1 [neostygmin] | – | – | – | – | – | – | detection of this inhibitor of AchE goes down to [1]: 50 ng/mL
OC[C@H]1O[C@H](O[C@H]2O[C@H](CO)[C@@H](O)[C@H](O)[C@H]2O)[C@H](O)[C@@H](O)[C@@H]1O [Trehalose, α-D glucopyranosyl-α-D-glucopyranoside] | – | – | – | – | – | – | Residual enzymatic activity after storage of AchE-sensitized wells during 7 days ([2]; 4° C.): 1.88 adsorbances read at 412 nm; Residual enzymatic activity after storage of AchE-sensitized wells during 7 days ([2]; 37° C.): 0.97 adsorbances read at 412 nm; Residual enzymatic activity after storage of AchE-sensitized wells during 7 days ([2]; 50° C.): 0.12 adsorbances read at 412 nm; concentration of trehalose sufficient and necessary to stabilize the dry enzyme [3]: Two
CNC(=O)Oc1cccc2ccccc12 [Carbaryl] | 80 | 61 | 44 | 18 | – | – | times less sensitivity of detection [4]: 100 times; activity at 0.01 µg/mL [5]: 80%; activity at 0.05 µg/mL [5]: 61%; activity at 0.1 µg/mL [5]: 51%; activity at 0.5 µg/mL [5]: 26%; activity at 1 µg/mL [5]: 28%
CCOP(=O)(OCC)Oc1ccc([N+](=O)[O-])cc1 [Paraoxon] | 40 | 0 | 0 | 0 | 80 | followed closely | –
CNC(=O)Oc1ccc2c(c1)[C@]1(C)CCN(C)[C@@H]1N2C [eserin] | – | – | – | – | – | – | detection of this inhibitor of AchE goes down to [1]: 100 ng/mL
COP(=O)(OC)OC(Br)C(Cl)(Cl)Br (centres unmarked) [Naled] | 11 | 0 | 0 | 0 | 73 | most sensitive | activity at 0.001 µg/mL [5]: 90%; activity at 0.01 µg/mL [5]: 63%; activity at 0.05 µg/mL [5]: 20%; activity at 0.1 µg/mL [5]: 9%; activity at 1 µg/mL [5]: 3%
CNC(=O)Oc1cccc2c1OC(C)(C)C2 [Carbofuran] | 35 | 20 | 18 | 14 | 73 | most sensitive | –
COP(=O)(OC)OC=C(Cl)Cl [Dichlorvos] | 80 | 60 | 49 | 3 | – | – | times less sensitivity of detection [4]: 100 times
